Assay results reported in patent US20240254138A1, “TRICYCLIC PYRIMIDINES AS CYCLIN-DEPENDENT KINASE 7 (CDK7) INHIBITORS” (JANSSEN PHARMACEUTICA NV, priority 2021, published 2024).

Experiments:
[1] = tested on: RNA Polymerase II Serine 5 phosphorylation (Rpb1 CTD, downstream substrate of CDK7) in A549 cells; assay: Imaging-based cellular RNA PolII Ser5 phosphorylation assay in A549 cells; format: cell-based, human; conditions: wild-type CDK7, RNA PolII Ser5 phosphorylation, averaged over all measurements; for IC50: Homo sapiens, A549, A549 cells, read-out: CDK7_A549 Wild-type CDK7 (pIC50) (converted); for CDK7_A549 Wild-type CDK7 (pIC50): A549 cells
Excerpt: (§1) To evaluate inhibition of CDK7 kinase activity, a 384-well automated imaging assay was used. This assay detects Serine 5 phosphorylation on a unique heptapeptide sequence in the C-terminal domain of Rpb1 subunit of RNA polymerase II, the downstream substrate of CDK7. This heptapeptide sequence is repeated up to 52 times in the CTD of Rpb1.
(§2) A549 adenocarcinoma human alveolar basal epithelial cells (ATCC, CCL-185), rabbit Phospho-Rpb1 CTD (Ser5) antibody (D9N51 (Cell Signaling Technology)), DMEM (Sigma), Fetal Bovine Serum (Biowest), L-glutamine (Sigma), Penicillin/Streptomycin (Life Technologies), Sodium Pyruvate (Sigma), Hepes (Sigma), poly-D-lysine coated μclear 384 black plates (Greiner), formaldehyde (PolySciences), D-PBS (Sigma), Methanol (Sigma), Alexa Fluor 488 goat anti rabbit IgG secondary antibody (Life Technologies), HCS CellMask™ Deep Red stain (Life Technologies), Hoechst 33258 (Invitrogen).
(§3) RNA Polymerase II Serine 5 phosphorylation was detected using a specific rabbit Phospho-Rpb1 CTD (Ser5) antibody. A549 adenocarcinoma human alveolar basal epithelial cells were seeded in 20 μl medium (DMEM supplemented with 1% Fetal Bovine Serum (heat inactivated 30′ 56° C.), 2 mM L-glutamine, 50 U/ml penicillin 50 μg/ml streptomycin, 1 mM sodium pyruvate and 50 mM hepes) at 1000 cells/well and cultured in poly-D-lysine coated μclear 384 black plates for 20 hours at 37° C. and 5% CO2.
(§4) After incubation cells were challenged with compound for 3 hours at 37° C. and 5% CO2. DMSO was used as high control and as low control 10 μM of the following reference compound was used:
(§5) 40 nl of test compounds and controls were spotted in cell plates using Echo Liquid Handler (Echo 550, Labcyte). Incubation was followed by 20 minutes fixation with 20 μl 10% formaldehyde at room temperature. Medium/formaldehyde solution was removed, plates were washed 3 times with 30 μl D-PBS (w/o Ca^2+ and Ma^2+) and permeabilization was done by adding 20 μl ice cold methanol for 20 minutes. Cells were washed again 3 times with 30 μl D-PBS and 20 μl blocking buffer (25 ml fetal bovine serum in 500 ml D-PBS) was added for 1 hour.
(§6) After removing blocking buffer 20 μl 1/1000 primary antibody rabbit Phospho-Rpb1 CTD (Ser5) antibody was added which binds to the phosphorylated Serine5 of the heptapeptide sequences in the CTD of Rpb1. Primary antibody was removed, and plates were washed 3 times with 30 μl D-PBS followed by addition of 20 μl 1/2000 Alexa Fluor 488 goat anti rabbit IgG secondary antibody for final detection of Phospho-Rpb1 CTD (Ser5) together with 1/5000 HCS CellMask™ Deep Red stain for membrane staining and 1/5000 Hoechst 33258 for nucleus staining. Last, plates were washed 2 times with 30 μl D-PBS and wells were filled with 40 μL D-PBS, plates were sealed (Thermowell sealing tape) and stored at 4° C. until reading. Plates were read with Opera Phenix (Perkin Elmer) with 10× air objective. Data were calculated and analyzed in Phaedra.
(§7) IC50 values were calculated using the following formula: […]
(§8) Average value of all HC's and all LC's are used for normalizations.
(§9) A best-fit curve is fitted by a minimum sum of squares method to the plot of % Control vs. compound concentration. From this an IC50 value can be obtained. An estimate of the slope of the plot in terms of the Hill coefficient is also obtained.

[2] = tested on: RNA Polymerase II Serine 5 phosphorylation in A549 cells overexpressing CDK7-mutant (C312S); assay: Imaging-based cellular RNA PolII Ser5 phosphorylation assay in A549 cells overexpressing CDK7-mutant (C312S); format: cell-based, human; conditions: RNA PolII Ser5 phosphorylation, averaged over all measurements; for IC50: Homo sapiens, A549, A549 cells overexpressing CDK7-mutant (C312S), read-out: CDK7_A549 mutant hCDK7(pIC50) (converted); for CDK7_A549 mutant hCDK7(pIC50): A549 cells overexpressing CDK7-mutant (C312S)
Excerpt: as §1, §2, §3, §4, §5, §6, §7, §8, §9
In parallel this assay was performed in A549 cells overexpressing CDK7-mutant (C312S) to evaluate the effect of the covalent bond on potency and to screen for potential off-target effects. Mutation of Cysteine to Serine (C312S), a less nucleophilic amino acid, prevents CDK7 inhibitors from covalently binding to CDK7 and from inhibiting CDK7 activity in an irreversible manner. A stably transduced A549 cell pool was generated that overexpresses CDK7 mutant (C312S), but also expresses endogenous CDK7-WT. Covalent binders targeting the cysteine at position 312 will show a shift in potency in A549 cells overexpressing mutant C312S CDK7.

SMILES	IC50 [1] [µM]	IC50 [2] [µM]	CDK7_A549 Wild-type CDK7 (pIC50) [1]	CDK7_A549 mutant hCDK7(pIC50) [2]
CC#CC(=O)N1CC(N2CCC(c3cc4c(c(C#N)n3)O[C@H](C)c3c(N5CCOCC5)ccnc3N4)CC2)C1 (single isomer, unassigned) [Compound 481]	3.02	> 10	–	–
C#Cc1cc2c(cc1C1CCN(C3CN(C(=O)C=C)C3)CC1)Nc1nccc(N3CCOCC3)c1[C@H](C)O2 (single isomer, unassigned) [Compound 209]	0.1	> 10	–	–
CC#CC(=O)N1CC(N2CC(c3cc4c(c(C)n3)O[C@@H](C)c3c(N5CCOCC5)ccnc3N4)C2)C1 (single isomer, unassigned) [Compound 441]	–	–	<5	<5
C=CC(=O)N1CCC(Oc2cc(-c3cc4c(c(C)n3)OCc3c(N5CCOCC5)ccnc3N4)ccn2)CC1 [Compound 407]	1.91	7.76	–	–
CC#CC(=O)N1CC[C@H](N2CC(c3cc4c(c(C)n3)O[C@H](C)c3c(N5CCOCC5)ccnc3N4)C2)C1 (single isomer, unassigned) [Compound 516]	–	> 10	5.68	–
CC#CC(=O)N1CCC(Oc2cc(-c3cc4c(c(C)n3)OCc3c(N5CCOCC5)ccnc3N4)ccn2)CC1 [Compound 409]	1.45	7.08	–	–
CC#CC(=O)N1CC(N2CC[C@@H](c3cc4c(c(C)n3)OCc3c(N5CCOCC5)ccnc3N4)N(C)CC2)C1 (single isomer, unassigned) [Compound 446]	0.794	> 10	–	–
CC#CC(=O)N1CC(N2CCC(c3cc4c(c(C)n3)OCc3c(-c5cnn(C)c5)ccnc3N4)CC2)C1 [Compound 538]	–	–	6.49	<5
C=CC(=O)N1CC(N2CCOC(c3ccc4c(c3)OCc3c(N5CCOCC5)ccnc3N4)C2)C1 (centres unmarked) [Compound 266]	~10.2	> 10	–	–
CC#CC(=O)N1CC(N2CC(c3cc4c(c(C)n3)O[C@@H](C)c3c(N5CCOCC5)ccnc3N4)C2)C1 (single isomer, unassigned) [Compound 356]	7.76	> 10	–	–
CC#CC(=O)N1CC(N2CCC(c3cc4c(c(C)n3)O[C@@H](C)c3c(N5CCOCC5)ccnc3N4)CC2)C1 (single isomer, unassigned) [Compound 371]	2.19	> 10	–	–
CC#CC(=O)N1CCC(N2CC(c3nc(C)c4c(n3)Nc3nccc(N5CCOCC5)c3[C@@H](C)O4)C2)CC1 [Compound 546]	2.75	> 10	–	–
CC#CC(=O)N1CC[C@@H](N2CC(c3cc4c(c(C)n3)O[C@H](C)c3c(N5CCOCC5)ccnc3N4)C2)C1 (single isomer, unassigned) [Compound 531]	–	–	<5	<5
CC#CC(=O)N1CC(N2CC[C@H](c3cc4c(c(C)n3)O[C@H](C)c3c(N5CCOCC5)ccnc3N4)C2)C1 (single isomer, unassigned) [Compound 397]	> 10	> 10	–	–
C=CC(=O)N1CCC(n2ccc(-c3ccc4c(c3)OCc3c(N5CCOCC5)ccnc3N4)cc2=O)CC1 [Compound 408]	> 10	> 10	–	–
CC#CC(=O)N1CC(n2cc(-c3cc(C#N)c4c(c3)Nc3nccc(N5CCOCC5)c3[C@@H](C)O4)cn2)C1 (single isomer, unassigned) [Compound 450]	1.78	> 10	–	–
C#CCCN(C)C/C=C/C(=O)N1CC(N2CCC(c3ccc4c(c3)Nc3nccc(C5CCOCC5)c3[C@H](C)O4)CC2)C1 (single isomer, unassigned) [Compound 187]	4.07	> 10	–	–

SMILES	IC50 [1] [µM]	IC50 [2] [µM]	CDK7_A549 Wild-type CDK7 (pIC50) [1]	CDK7_A549 mutant hCDK7(pIC50) [2]
C=CC(=O)N1CC(N2CCC(c3cc(C)c4c(c3)Nc3nccc(N5CCOCC5)c3CO4)CC2)C1 [Compound 20]	0.0589	> 10	–	–
CC#CC(=O)N1CC(N2CC[C@H](c3cc4c(c(C)n3)O[C@@H](C)c3c(N5CCOCC5)ccnc3N4)C2)C1 (single isomer, unassigned) [Compound 395]	> 10	> 10	–	–
CC#CC(=O)N1CC[C@H](N2CC(c3cc4c(c(C)n3)O[C@@H](C)c3c(N5CCOCC5)ccnc3N4)C2)C1 (single isomer, unassigned) [Compound 512]	–	> 10	7.56	–
C=CC(=O)N1CCC2(CC1)CCN(c1cc3c(c(C)n1)OCc1c(-c4cnn(C)c4)ccnc1N3)CC2 [Compound 479]	> 10	> 10	–	–
C#Cc1cc2c(cc1C1CCN(C3CN(C(=O)C=C)C3)CC1)Nc1nccc(N3CCOCC3)c1[C@@H](C)O2 (single isomer, unassigned) [Compound 210]	8.51	> 10	–	–
C=CC(=O)N1CC[C@@H](N2CC(c3cc4c(c(C#N)n3)OCc3c(N5CCOCC5)ccnc3N4)C2)C1 (single isomer, unassigned) [Compound 474]	0.575	> 10	–	–
CC(=O)N1CCC(N2CC(c3cc4c(c(C)n3)OCc3c(-c5cnn(C)c5)ccnc3N4)C2)CC1 [Compound 321]	9.33	8.71	–	–
C#CCCN(C)C/C=C/C(=O)N1CC(N2CCC(c3cc(Cl)c4c(c3)Nc3nccc(N5CCOCC5)c3CO4)CC2)C1 [Compound 168]	0.0776	> 10	–	–
C=CC(=O)N1CC(N2CCC(c3cc(C)c4c(c3)Nc3nccc(N5CCOCC5)c3CO4)CC2)C1 [Compound 21]	–	–	7.34	<5
C#Cc1cc(C2CN([C@H]3CCN(C(=O)C=C)C3)C2)cc2c1OCc1c(-c3cnn(C)c3)ccnc1N2 (single isomer, unassigned) [Compound 492]	0.126	9.55	–	–
C=CC(=O)N1CCC(Cc2ccc3c(c2)Nc2nccc(-c4cnccc4C)c2CO3)C1 (centres unmarked) [Compound 6]	~9.33	> 10	–	–
CC#CC(=O)N1CCC(N2CC(c3nc(C)c4c(n3)Nc3nccc(N5CCOCC5)c3[C@H](C)O4)C2)CC1 [Compound 547]	> 10	> 10	–	–
CC#CC(=O)N1CC(N2CCC(c3cc4c(c(C#N)n3)OC(C)c3c(N5CCOCC5)ccnc3N4)CC2)C1 (centres unmarked) [Compound 514]	0.324	> 10	–	–
CC#CC(=O)N1CCC(N2CC(c3cc4c(c(C)n3)O[C@@H](C)c3c(N5CCOCC5)ccnc3N4)C2)CC1 (single isomer, unassigned) [Compound 360]	0.676	> 10	–	–
CC#CC(=O)N1CC(N2CCC(c3cc4c(c(C#N)n3)O[C@@H](C)c3c(N5CCOCC5)ccnc3N4)CC2)C1 (single isomer, unassigned) [Compound 485]	0.12	> 10	–	–
CC#CC(=O)N1CCC(C2CN(c3cc4c(c(C)n3)OCc3c(N5CCOCC5)ccnc3N4)C2)CC1 [Compound 451]	0.302	> 10	–	–
C/C=C/C(=O)N1CC(N2CCC(c3ccc4c(c3)Nc3nccc(N5CCOCC5)c3CO4)CC2)C1 [Compound 106]	~10	> 10	–	–
